Assay results: patent US7635716B2, “Substituted cyclopentanes or cyclopentanones as therapeutic agents” (Allergan, Inc., priority 2005, dated 2009)
Like-named read-outs stand apart in the source and are kept apart here.

Columns and labels:
hEP2/Gqs5 = molecular target: T1, hEP2/Gqs5 (Homo sapiens, UniProt P43116); assay: FLIPR calcium signal, HEK-293(EBNA) cells; type: cell-based
T1 construct: expressed in transfected cells; host or cells: HEK-293(EBNA) cells
Description: (§1) HEK-293(EBNA) cells, stably expressing one type or subtype of recombinant human prostaglandin receptors (prostaglandin receptors expressed: hDP/Gqs5; hEP1; hEP2/Gqs5; hEP3A/Gqi5; hEP4/Gqs5; hFP; hIP; hTP), were cultured in 100 mm culture dishes in high-glucose DMEM medium containing 10% fetal bovine serum, 2 mM 1-glutamine, 250 μg/ml geneticin (G418) and 200 μg/ml hygromycin B as selection markers, and 100 units/ml penicillin G, 100 μg/ml streptomycin and 0.25 μg/ml amphotericin B.
(§2) Cells were seeded at a density of 5×10^4 cells per well in Biocoat® Poly-D-lysine-coated black-wall, clear-bottom 96-well plates (Becton-Dickinson) and allowed to attach overnight in an incubator at 37° C. Cells were then washed two times with HBSS-HEPES buffer (Hanks Balanced Salt Solution without bicarbonate and phenol red, 20 mM HEPES, pH 7.4) using a Denley Cellwash plate washer (Labsystems). After 45 minutes of dye-loading in the dark, using the calcium-sensitive dye Fluo-4 AM at a final concentration of 2 μM, plates were washed four times with HBSS-HEPES buffer to remove excess dye leaving 100 μl in each well. Plates were re-equilibrated to 37° C. for a few minutes.
(§3) Cells were excited with an Argon laser at 488 nm, and emission was measured through a 510-570 nm bandwidth emission filter (FLIPR™, Molecular Devices, Sunnyvale, Calif.). Drug solution was added in a 50 μl volume to each well to give the desired final concentration. The peak increase in fluorescence intensity was recorded for each well. On each plate, four wells each served as negative (HBSS-HEPES buffer) and positive controls (standard agonists: BW245C (hDP); PGE2 (hEP1; hEP2/Gqs5; hEP3A/Gqi5; hEP4/Gqs5); PGF2. (hFP); carbacyclin (hIP); U-46619 (hTP), depending on receptor). The peak fluorescence change in each drug-containing well was then expressed relative to the controls.
(§4) Compounds were tested in a high-throughput (HTS) or concentration-response (CoRe) format. In the HTS format, forty-four compounds per plate were examined in duplicates at a concentration of 10^−5 M. To generate concentration-response curves, four compounds per plate were tested in duplicates in a concentration range between 10^−5 and 10^−11 M. The duplicate values were averaged. In either, HTS or CoRe format each compound was tested on at least 3 separate plates using cells from different passages to give an n≧3.

hEP4/Gqs5 = molecular target: T2, hEP4/Gqs5 (Homo sapiens, UniProt P35408); assay: FLIPR calcium signal, HEK-293(EBNA) cells; type: cell-based
T2 construct: expressed in transfected cells; host or cells: HEK-293(EBNA) cells
T2 sequence (P35408 whole entry): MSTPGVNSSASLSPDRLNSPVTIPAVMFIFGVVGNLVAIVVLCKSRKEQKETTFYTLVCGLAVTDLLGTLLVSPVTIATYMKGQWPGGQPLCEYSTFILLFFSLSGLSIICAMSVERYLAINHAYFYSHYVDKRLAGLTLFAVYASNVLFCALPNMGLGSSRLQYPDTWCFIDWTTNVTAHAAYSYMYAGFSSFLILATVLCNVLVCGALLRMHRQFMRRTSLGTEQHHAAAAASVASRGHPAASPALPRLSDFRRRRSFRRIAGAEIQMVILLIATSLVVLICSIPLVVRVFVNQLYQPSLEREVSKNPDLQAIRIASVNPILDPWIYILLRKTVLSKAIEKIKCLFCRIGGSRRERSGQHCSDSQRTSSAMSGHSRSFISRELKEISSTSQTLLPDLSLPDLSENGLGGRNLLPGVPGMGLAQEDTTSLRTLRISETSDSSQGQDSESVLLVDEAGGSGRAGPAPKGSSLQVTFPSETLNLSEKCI
Description: as §1, §2, §3, §4

hDP/Gqs5 = molecular target: T3, hDP/Gqs5 (Homo sapiens, UniProt Q13258); assay: FLIPR calcium signal, HEK-293(EBNA) cells; type: cell-based
T3 construct: expressed in transfected cells; host or cells: HEK-293(EBNA) cells
T3 sequence (Q13258 1-359): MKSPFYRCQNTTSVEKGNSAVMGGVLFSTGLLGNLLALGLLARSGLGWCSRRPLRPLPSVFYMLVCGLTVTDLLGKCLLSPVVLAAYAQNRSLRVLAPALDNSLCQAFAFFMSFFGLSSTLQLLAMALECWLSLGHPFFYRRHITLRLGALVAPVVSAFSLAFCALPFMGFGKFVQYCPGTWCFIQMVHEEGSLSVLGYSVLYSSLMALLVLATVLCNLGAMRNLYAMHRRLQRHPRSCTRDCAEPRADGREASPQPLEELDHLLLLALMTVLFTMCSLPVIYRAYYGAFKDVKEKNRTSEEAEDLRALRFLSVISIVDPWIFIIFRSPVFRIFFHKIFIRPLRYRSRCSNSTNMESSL
Description: as §1, §2, §3, §4

hEP1 = molecular target: T4, hEP1 (Homo sapiens, UniProt P34995); assay: FLIPR calcium signal, HEK-293(EBNA) cells; type: cell-based
T4 construct: expressed in transfected cells; host or cells: HEK-293(EBNA) cells
T4 sequence (P34995 1-402): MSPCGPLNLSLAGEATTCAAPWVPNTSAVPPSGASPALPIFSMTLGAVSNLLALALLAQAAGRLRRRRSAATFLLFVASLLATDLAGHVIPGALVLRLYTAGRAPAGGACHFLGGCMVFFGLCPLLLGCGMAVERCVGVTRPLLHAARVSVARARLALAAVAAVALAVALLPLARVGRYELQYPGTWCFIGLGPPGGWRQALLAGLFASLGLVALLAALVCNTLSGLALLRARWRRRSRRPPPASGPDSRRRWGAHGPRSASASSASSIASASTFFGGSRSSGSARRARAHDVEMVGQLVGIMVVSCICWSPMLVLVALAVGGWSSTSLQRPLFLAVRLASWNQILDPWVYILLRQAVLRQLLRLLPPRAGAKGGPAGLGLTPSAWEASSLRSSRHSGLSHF
Description: as §1, §2, §3, §4

hEP3A/Gqi5 = molecular target: T5, hEP3A/Gqi5 (Homo sapiens, UniProt P43115); assay: FLIPR calcium signal, HEK-293(EBNA) cells; type: cell-based
T5 construct: expressed in transfected cells; host or cells: HEK-293(EBNA) cells
T5 sequence (P43115 1-390): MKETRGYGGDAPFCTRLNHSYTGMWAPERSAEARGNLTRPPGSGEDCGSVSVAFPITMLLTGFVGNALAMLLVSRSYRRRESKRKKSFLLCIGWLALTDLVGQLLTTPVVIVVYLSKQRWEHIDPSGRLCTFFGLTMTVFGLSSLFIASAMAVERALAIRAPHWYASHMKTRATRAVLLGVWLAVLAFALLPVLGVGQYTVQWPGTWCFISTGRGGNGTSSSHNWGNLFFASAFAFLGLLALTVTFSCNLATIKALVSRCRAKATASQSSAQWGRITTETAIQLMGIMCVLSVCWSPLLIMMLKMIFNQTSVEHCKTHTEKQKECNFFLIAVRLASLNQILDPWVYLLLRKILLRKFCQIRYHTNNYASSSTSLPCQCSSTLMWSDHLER
Description: as §1, §2, §3, §4

normotensive dogs [1] = assay: Intraocular pressure (IOP) in normotensive dogs; type: in vivo, dog; settings: Canis lupus familiaris, topical, 120 h, 0.1%, dosing once daily for 5 days, read-out: maximum IOP decrease from baseline (percent)
Description: (§5) (Z)-7-[(1R,2S,3R,5R)-5-Chloro-2-(3,5-dichloro-phenoxymethyl)-3-hydroxy-cyclopentyl]-hept-5-enoic acid (15b) was tested at multiple concentrations in normotensive dogs, dosing once daily for 5 days. At 0.05%, the maximum IOP decrease from baseline was 4.3 mmHg (30%) at 6 h; the maximum OSH score was 0.6 at 6 h. […] This compound was also tested in laser-induced hypertensive monkeys, using one single day dose. At 0.1%, the maximum IOP decrease from baseline was 6 mmHg (19%) at 6 h.
(§6) (Z)-7-[(1R,2S,3R,5R)-5-Chloro-2-(3,5-dichloro-phenoxymethyl)-3-hydroxy-cyclopentyl]-hept-5-enoic acid isopropyl ester (42b) was tested in normotensive dogs at 0.05%, dosing once daily for 5 days. The maximum intraocular pressure (IOP) decrease from baseline was 3 mmHg (19%) at 6 h; the maximum ocular surface hyperemia (OSH) score was 0.6 at 74 h. This compound was also tested in laser-induced hypertensive monkeys, using one single day dose. At 0.01%, the maximum IOP decrease from baseline was 6 mmHg (16%) at 6 h.

normotensive dogs [2] = assay: Ocular surface hyperemia (OSH) in normotensive dogs; type: in vivo, dog; set-up: maximum OSH score: scale not given here; settings: 0.1%, dosing once daily for 5 days
Description: as §5, §6

[3] = system: laser-induced hypertensive monkeys; assay: Intraocular pressure (IOP) in laser-induced hypertensive monkeys; type: in vivo, monkey; settings: Primates, topical, 0.1%, one single day dose, read-out: maximum IOP decrease from baseline (percent)
Description: as §5, §6

[4] = Table 1, first part, triplicate, read-out: functional data (EC50) hEP2
[5] = Table 1, second part, read-out: hEP2 flipr EC50
[6] = Table 1, first part, triplicate, read-out: functional data (EC50) hEP4
[7] = Table 1, second part, read-out: hEP4 flipr EC50
[8] = Table 1, second part, quantity not given, values match functional data (EC50) of first part, read-out: Other Receptors hEP3

T1 sequence (P43116 whole entry): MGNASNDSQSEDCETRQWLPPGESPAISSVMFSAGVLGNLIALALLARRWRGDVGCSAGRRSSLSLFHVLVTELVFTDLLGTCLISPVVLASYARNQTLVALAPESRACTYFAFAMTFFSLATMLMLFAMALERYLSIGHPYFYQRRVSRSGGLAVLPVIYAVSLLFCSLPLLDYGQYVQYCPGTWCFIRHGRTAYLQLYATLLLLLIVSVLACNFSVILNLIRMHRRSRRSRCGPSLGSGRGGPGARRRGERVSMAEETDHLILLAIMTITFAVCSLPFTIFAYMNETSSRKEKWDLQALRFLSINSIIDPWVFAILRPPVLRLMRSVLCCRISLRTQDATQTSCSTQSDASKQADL

COC(=O)CCC/C=C\C[C@H]1C(=O)C=C[C@@H]1COc1ccccc1 [Example 1, (Z)-7-((1R,5S)-2-Oxo-5-phenoxymethyl-cyclopent-3-enyl)-hept-5-enoic acid methyl ester]
EC50 (hEP2/Gqs5; [4]): > 10 µM
EC50 (hEP2/Gqs5; [5]): > 10 µM
EC50 (hEP4/Gqs5; [6]): > 10 µM
EC50 (hEP4/Gqs5; [7]): > 10 µM

COC(=O)CCC/C=C\C[C@H]1C(=O)C[C@@H](O)[C@@H]1COc1ccccc1 [Example 2, (Z)-7-((1R,2S,3R)-3-Hydroxy-5-oxo-2-phenoxymethyl-cyclopentyl)-hept-5-enoic acid methyl ester]
EC50 (hEP4/Gqs5; [6]): > 10 µM
EC50 (hEP4/Gqs5; [7]): > 10 µM

COC(=O)CCCCCC[C@H]1C(=O)CC[C@@H]1COc1ccccc1 [Example 5, 7-((1R,5S)-2-Oxo-5-phenoxymethyl-cyclopentyl)-heptanoic acid methyl ester]
EC50 (hEP2/Gqs5; [4]): > 10 µM
EC50 (hEP2/Gqs5; [5]): > 10 µM
EC50 (hEP4/Gqs5; [6]): > 10 µM
EC50 (hEP4/Gqs5; [7]): > 10 µM

COC(=O)CCC/C=C\C[C@@H]1[C@@H](COc2ccccc2)[C@H](O)C[C@H]1Cl [Example 7, (Z)-7-((1R,2S,3R,5R)-5-Chloro-3-hydroxy-2-phenoxymethyl-cyclopentyl)-hept-5-enoic acid methyl ester]
EC50 (hEP2/Gqs5; [4]): > 10 µM
EC50 (hEP2/Gqs5; [5]): > 10 µM
EC50 (hEP4/Gqs5; [6]): > 10 µM
EC50 (hEP4/Gqs5; [7]): > 10 µM

COC(=O)CCCCCC[C@@H]1[C@@H](COc2ccccc2)[C@H](O)C[C@H]1Cl [Example 9, 7-((1R,2S,3R,5R)-5-Chloro-3-hydroxy-2-phenoxymethyl-cyclopentyl)-heptanoic acid methyl ester]
EC50 (hEP2/Gqs5; [4]): > 10 µM
EC50 (hEP2/Gqs5; [5]): > 10 µM
EC50 (hEP4/Gqs5; [6]): 3.71 µM

COC(=O)CCCCCC[C@@H]1[C@@H](COc2cc(Cl)cc(Cl)c2)[C@H](O)C[C@H]1Cl [Example 13, 7-[(1R,2S,3R,5R)-5-Chloro-2-(3,5-dichloro-phenoxymethyl)-3-hydroxy-cyclopentyl]-heptanoic acid methyl ester]
EC50 (hDP/Gqs5; Table 1, first part, triplicate, read-out: functional data (EC50) hDP): > 10 µM
EC50 (hDP/Gqs5; Table 1, second part, quantity not given, values match functional data (EC50) of first part, read-out: Other Receptors hDP): > 10 µM
EC50 (hEP1; Table 1, first part, triplicate, read-out: functional data (EC50) hEP1): > 10 µM
EC50 (hEP1; Table 1, second part, quantity not given, values match functional data (EC50) of first part, read-out: Other Receptors hEP1): > 10 µM
EC50 (hEP2/Gqs5; [4]): 1.66 µM
EC50 (hEP3A/Gqi5; Table 1, first part, data represents a single experiment, read-out: functional data (EC50) hEP3A*): > 10 µM
EC50 (hEP3A/Gqi5; [8]): > 10 µM
EC50 (hEP4/Gqs5; [6]): > 10 µM
EC50 (hEP4/Gqs5; [7]): > 10 µM

O=C(O)CCC/C=C\C[C@@H]1[C@@H](COc2cc(C(F)(F)F)cc(C(F)(F)F)c2)[C@H](O)C[C@H]1Cl [Example 15, (Z)-7-[(1R,2S,3R,5R)-2-(3,5-Bis-trifluoromethyl-phenoxymethyl)-5-chloro-3-hydroxy-cyclopentyl]-hept-5-enoic acid]
inhibition in vivo at 0.1 % (normotensive dogs [1]): 35%
maximum OSH score (normotensive dogs [2]): 0.9
time of maximum OSH score (normotensive dogs [2]): 52 h
inhibition in vivo at 0.1 % [3]: 30%

O=C(O)CCC/C=C\C[C@@H]1[C@@H](COc2cccc3ccccc23)[C@H](O)C[C@H]1Cl [Example 19, (Z)-7-[(1R,2S,3R,5R)-5-Chloro-3-hydroxy-2-(naphthalen-1-yloxymethyl)-cyclopentyl]-hept-5-enoic acid]
inhibition in vivo at 0.1 % (normotensive dogs [1]): 41%
maximum OSH score (normotensive dogs [2]): 0.8
time of maximum OSH score (normotensive dogs [2]): 54 h
inhibition in vivo at 0.1 % [3]: 31%

O=C(O)CCC/C=C\C[C@@H]1[C@@H](COc2cccc(C(F)(F)F)c2)[C@H](O)C[C@H]1Cl [Example 24, (Z)-7-[(1R,2S,3R,5R)-5-Chloro-3-hydroxy-2-(3-trifluoromethyl-phenoxymethyl)-cyclopentyl]-hept-5-enoic acid]
inhibition in vivo at 0.1 % (normotensive dogs [1]): 16%
maximum OSH score (normotensive dogs [2]): 0.5
time of maximum OSH score (normotensive dogs [2]): 6 h
inhibition in vivo at 0.1 % [3]: 28%

Cc1cc(C)cc(OC[C@@H]2[C@@H](C/C=C\CCCC(=O)O)[C@H](Cl)C[C@H]2O)c1 [Example 36, (Z)-7-[(1R,2S,3R,5R)-5-Chloro-2-(3,5-dimethyl-phenoxymethyl)-3-hydroxy-cyclopentyl]-hept-5-enoic acid]
inhibition in vivo at 0.1 % (normotensive dogs [1]): 46%
maximum OSH score (normotensive dogs [2]): 1.2
time of maximum OSH score (normotensive dogs [2]): 28 h
inhibition in vivo at 0.1 % [3]: 25%

O=C(O)CCC/C=C\C[C@@H]1[C@@H](COc2cc(C(F)(F)F)cc(Cl)c2F)[C@H](O)C[C@H]1Cl [Example 41, (Z)-7-[(1R,2S,3R,5R)-5-Chloro-2-(3-chloro-2-fluoro-5-trifluoromethyl-phenoxymethyl)-3-hydroxy-cyclopentyl]-hept-5-enoic acid]
EC50 (hEP3A/Gqi5; [8]): 1.64 µM

O=C(O)CCC/C=C\C[C@@H]1[C@@H](COc2ccc(CO)cc2)[C@H](O)C[C@H]1Cl [Example 43, (Z)-7-[(1R,2S,3R,5R)-5-Chloro-3-hydroxy-2-(4-hydroxymethyl-phenoxymethyl)-cyclopentyl]-hept-5-enoic acid]
inhibition in vivo at 0.1 % (normotensive dogs [1]): 20%
maximum OSH score (normotensive dogs [2]): 0.6
time of maximum OSH score (normotensive dogs [2]): 98 h
inhibition in vivo at 0.1 % [3]: 6%
